Data as given in publication PMC4864966, “Two unexpected promiscuous activities of the iron–sulfur protein IspH in production of isoprene and isoamylene” (Microbial Cell Factories, 2016).

Test system: T1, IspH
T1 construct: complete ORF in pET-28a(+) NcoI/XhoI, C-terminal His-tag, E. coli BL21(DE3) with isc operon, [4Fe-4S] cluster, Ni-NTA purified anaerobically
Experiment: headspace GC of isoamylene (2-methyl-2-butene and 3-methyl-1-butene) formation; Michaelis-Menten and Lineweaver-Burk
Assay type: biochemical, Bacillus sp. N16-5
Settings: 1 mM NADPH, 20 µM Fd, 5 µM FNR, 2 mM DTT, 20 mM Tris-HCl pH 7.8, 150 mM NaCl, 37 °C, anaerobic; DMAPP 0.1 to 1 mM

Km: ~275 µM
Structure (SMILES): CC(C)=CCOP(=O)(O)OP(=O)(O)O [DMAPP]
